# Reference: patent US12108719B2, “Methods for creating doubled haploid plants” (Monsanto Technology LLC, priority 2015, dated 2024)
# Legend:
# [1] = system: induced haploid germplasms (A and B); experiment: Co-dominant ear induction by PBZ soil drench in colchicine-treated haploid maize (Example 1); format: in vivo
# Text: V1-V3 seedlings of two unique F1 hybrid-derived haploid maize lines, derived from: female heterotic group (Germplasm A) or male heterotic group (Germplasm B), were subjected to a bulk colchicine-based chromosome doubling treatment by removing the seedlings from soil or growth media at the V1-V3 growth stage and aligning their stems and wrapping them together along with several wooden rods into bundle a held together by a strip of aluminum foil (approximate foil strip dimensions were 6 in×18 in). The bundled plants were submerged in plant treatment solution comprising 1250 ppm of colchicine in a centrifuge container and then the entire sample was centrifuged at 50 g for 3 min while the shoot apical meristems (SAMs) remained submerged in the plant treatment agent solution.
# Following the first centrifugation, the plant treatment solution was decanted and the seedlings subjected to an addition centrifugation at 335 g for 3 min. During the second centrifugation, the rod-wrap bundle supported the seedlings and prevented the SAMs from contacting the reserve treatment agent that was not absorbed by the plant during application of the centrifugal force.
# Following the second centrifugation, the plants were removed from the centrifugation container and the rod-wrap bundle and rinsed with water to remove any remaining colchicine solution, and then recovered and tended in a light, humidity, and temperature-controlled greenhouse for several days before being transplanted to a nursery greenhouse. These centrifuge-based treatment methods are described in more detail in International application number PCT/US2015/028955, which is incorporated by reference herein in its entirety, however, standard doubling treatments can also be applied to any of the haploid doubling steps referred to herein.
# Following colchicine doubling treatment, 15-20 plants from each germplasm were planted in pots at two different densities; either as single plants per pot (singles), or as two plants per pot (pairs).
# Next, each plant received one of two different doses of PBZ, either 50 mL (low dose) or 60 mL (high dose) of a 2.5% PBZ solution (v/v; 0.4% of active ingredient) in water. These two different doses were applied by soil drench at either the V7 or V8 growth stage, which occurred a total of 23 or 26 days after the seedlings had been subjected to chromosome doubling treatment, respectively. A control group of plants received no treatment solution but were otherwise treated exactly as the experimental groups planted as singles. When pollen shed began at the tassels, the average number of silk-producing ears (i.e. co-dominant ears) were counted for each dosage, germplasm, and treatment time and the results summarized in Table. 1.
# [2] = system: DH0 seedlings of Germplasm A; experiment: Doubling efficiency of DH0 plants after co-dominant ear induction treatment (Example 2); format: in vivo, maize
# Text: An F1 hybrid-derived haploid induction population derived from female inbred maize plant Germplasm A was germinated in soil and tended in standard greenhouse maize growing conditions for approximately seven days. Seedlings were then subjected to a bulk colchicine-based chromosome doubling treatment as described above. Following treatment, seedlings were transplanted into pots and tended in a greenhouse at standard greenhouse maize growing conditions to recover.
# Twenty-nine days after the colchicine doubling treatment, 77 of the DH0 seedlings were subjected to a co-dominant ear induction treatment comprising the addition of 60 mL of 2.5% PBZ (v/v) in water, which was poured into the soil surrounding the roots of each plant. The seedlings were then tended in standard greenhouse maize growing conditions until they flowered, at which time each plant that produced pollen was self-pollinated. After approximately 3-4 weeks, ears were harvested and the kernels (DH1 seeds) that formed on the treated DH0 plants were counted to determine doubling efficiencies.
# Doubling efficiencies (DE) were calculated under four different constraints, depending on the minimum number of kernels an ear had to produce in order to even be included in the calculation. DE04 represents the portion of all the doubled DH0 plants that produced a total of at least four seeds when all ears were considered. DE20 represents the portion of all the doubled DH0 plants that produced a total of at least 20 kernels when all ears were considered. Similarly, DE30 represents the portion of doubled DH0 plants that produced a total of at least 30 kernels when all ears were considered, and DE50 represents the portion of doubled DH0 plants that produced a total of at least 50 kernels when all ears were considered.
# Furthermore, the above doubling efficiencies were calculated once by considering only the kernels that formed on the primary ear of each plant (Ear1), once by considering only the kernels that formed on the primary and secondary ear of each plant (Ear2), once by considering only the kernels that formed on the primary, secondary, and tertiary ear of each plant (Ear3), and finally by considering all the kernels that formed on all the ears of each plant (Earall).
# [3] = system: Diploid maize plants of a common inbred line; experiment: Tiller induction in diploids (Example 6); format: in vivo
# Procedure: Diploid maize plants of a common inbred line were subjected to a tiller induction treatment comprising drenching the soil surrounding the roots with 100 mL of a 2.5% PBZ solution (v/v; 0.4% of active ingredient) approximately one week after germination and then allowed to grow to sexual maturity in 10-inch pots a greenhouse. A control group of plants were grown under identical circumstances except that they were not subjected to the tiller induction treatment.
# Three treatment groups were then formed from the tillers: tillers of the “Co-hab” treatment were allowed to continue growing in the same pot with the mother plant; those of the “-Mother” treatment also remained in the same pot, but the mother plant was removed from the pot; and those of the “Transplanted” treatment group were transplanted from the pot containing the mother plant into separate 10-inch pots, one plant per pot. Any naturally-occurring tillers produced by the control group were allowed to grow in the same pot as the mother plant, similar to the co-hab treatment. All plants were allowed to grow to sexual maturity and self-pollinated when silks and tassels formed. When seed set was complete, the average total number of seeds produced by all plants deriving from the same mother plant seed were counted and plotted in FIG. 3.
# haploid mother plant = experiment: Tiller induction with doubled haploid mother plant (Example 7); format: in vivo, maize
# Procedure: A haploid mother plant will be subjected to doubling treatment and thereafter planted in a pot, the soil surrounding the roots drenched with 100 mL of 2.5% of paclobutrazol, and then tended standard maize green house growing conditions for several days. […] One of the resulting daughter tiller plants can be separated from the mother plant, transplanted into a separate pot, and grown via standard green house management procedures to eventually recover a daughter plant with normal haploid morphology.
# [4] = Ear1 (primary ear only), 60 mL 2.5% PBZ 29 days after colchicine doubling
# [5] = Ear2 (primary and secondary ear), 60 mL 2.5% PBZ after colchicine doubling
# [6] = Ear3 (primary, secondary and tertiary ear), 60 mL 2.5% PBZ after colchicine doubling
# [7] = EarAll (all ears), 60 mL 2.5% PBZ after colchicine doubling
# [8] = 100 mL 2.5% PBZ soil drench approx. one week after germination
smiles,measurement,setting,value
"CC(C)(C)[C@H](O)[C@H](Cc1ccc(Cl)cc1)n1cncn1 (relative stereo) [PBZ, (2S,3S)-1-(4-chlorophenyl)-4,4-dimethyl-2-(1,2,4-triazol-1-yl) pentan-3-ol]",number of co-dominant ears formed per plant,"[1]; V7, Germplasm A, planted as pairs, low dose (50 mL 2.5% PBZ)",3
same,average EP of high dosage greater than EP of low dosage,"[1]; all plants, high vs low dosage",0.31
same,high-dose EP average higher than the low-dose,[1]; only the singles,0.55
same,minimum increase of EP over control plants,[1]; singles subjected to the low dose,≥ 1.2 EP
same,DE04,[2]; [4],71%
same,DE20,[2]; [4],37%
same,DE30,[2]; [4],26%
same,DE50,[2]; [4],23%
same,DE04,[2]; [5],76%
same,DE20,[2]; [5],59%
same,DE30,[2]; [5],47%
same,DE50,[2]; [5],36%
same,DE04,[2]; [6],76%
same,DE20,[2]; [6],65%
same,DE30,[2]; [6],58%
same,DE50,[2]; [6],50%
same,DE04,[2]; [7],76%
same,DE20,[2]; [7],68%
same,DE30,[2]; [7],58%
same,DE50,[2]; [7],52%
same,morphology of mother plants,[3]; [8],shortened internodes
same,tiller production by mother plants,[3]; [8],induced the mother plants to produce tillers
same,average total seeds per plant vs control group,[3]; Transplanted treatment group (tillers transplanted to separate pots),more than twice the number of seeds as the control group
same,DH1 seeds yielded by daughter tiller plant when selfed,haploid mother plant; daughter tiller separated and transplanted,several dozen DH1 seeds
same,morphology and tiller production of mother plant,"haploid mother plant; haploid mother plant after doubling treatment, 100 mL of 2.5% paclobutrazol soil drench",shortened internodes and increased tiller production
